# Literature values as cited in US20060153907A1, “Liposome formulations of boronic acid compounds” (priority 2004, published 2006).
# System: tumor lines
# Conditions: NCI in vitro screen
structure (smiles),measurement,value
CC(C)C[C@H](NC(=O)[C@H](Cc1ccccc1)NC(=O)c1cnccn1)B(O)O [bortezomib],cytotoxicity against a range of tumor lines,showed cytotoxicity
